Assay results as given in BindingDB's records for PubMed 10454469 (Universidad De Sevilla, 1999).
“And” between values parts separate entries of the source, which are not always exact repeats. Equal entries are not always repeated.

Biological target: Gamma-aminobutyric acid receptor subunit alpha-1 (Rattus norvegicus, UniProt P62813)
Sequence (P62813 whole entry): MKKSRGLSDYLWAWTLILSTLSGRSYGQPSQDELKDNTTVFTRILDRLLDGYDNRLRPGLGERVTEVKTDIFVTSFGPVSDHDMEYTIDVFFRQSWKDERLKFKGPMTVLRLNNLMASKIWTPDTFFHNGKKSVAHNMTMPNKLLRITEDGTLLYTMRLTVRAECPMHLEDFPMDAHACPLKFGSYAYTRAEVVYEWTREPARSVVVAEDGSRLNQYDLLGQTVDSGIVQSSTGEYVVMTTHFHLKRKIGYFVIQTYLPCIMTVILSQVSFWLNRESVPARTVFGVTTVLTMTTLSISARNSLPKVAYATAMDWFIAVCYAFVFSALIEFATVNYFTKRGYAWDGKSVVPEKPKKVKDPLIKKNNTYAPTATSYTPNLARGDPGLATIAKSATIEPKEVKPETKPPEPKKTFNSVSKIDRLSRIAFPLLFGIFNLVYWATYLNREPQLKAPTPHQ

How did the Ki turn out when `Cc1nnc2ccc(-c3cccc(C(F)(F)F)c3)nn12` was run?
Its Ki is 0.7 nM and 0.81 nM.
